Experimental data published in PubChem BioAssay AID1963831 (Molecular Pharmacology Branch, DTP, NCI, 2024).

Tested on: 889142-216-R-J1-PDC complex spheroid viability
Test: Anticancer human tumor 889142-216-R-J1-PDC patient-derived bladder carcinoma cell line growth inhibition [POLQ]
Settings: for IC50: curve of first compound; for viability, T/C: stronger effect = lower value; active means viability on the fitted dose curve at most 10% of control; inactive means the rest
How it was run: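 Growth inhibition in 3D: complex spheroids (tumor PDC, HUVEC, MSC) treated with POLQ inhibitor combinations; where Cmax unknown, highest tested concentration 10 microM, except SN-38 at 1 microM.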

[1] = second compound 0.0316 µM, first compound 0.00316 µM
[2] = second compound 0.0316 µM, first compound 0.01 µM
[3] = second compound 0.0316 µM, first compound 0.0316 µM
[4] = second compound 0.0316 µM, first compound 0.1 µM
[5] = second compound 0.1 µM, first compound 0.00316 µM
[6] = second compound 0.1 µM, first compound 0.01 µM
[7] = second compound 0.1 µM, first compound 0.0316 µM
[8] = second compound 0.1 µM, first compound 0.1 µM
[9] = second compound 0.316 µM, first compound 0.00316 µM
[10] = second compound 0.316 µM, first compound 0.01 µM
[11] = second compound 0.316 µM, first compound 0.0316 µM
[12] = second compound 0.316 µM, first compound 0.1 µM
[13] = second compound 1 µM, first compound 0.00316 µM
[14] = second compound 1 µM, first compound 0.01 µM
[15] = second compound 1 µM, first compound 0.0316 µM
[16] = second compound 1 µM, first compound 0.1 µM
[17] = second compound 3.16 µM, first compound 0.00316 µM
[18] = second compound 3.16 µM, first compound 0.01 µM
[19] = second compound 3.16 µM, first compound 0.0316 µM
[20] = second compound 3.16 µM, first compound 0.1 µM
[21] = second compound 10 µM, first compound 0.00316 µM
[22] = second compound 10 µM, first compound 0.01 µM
[23] = second compound 10 µM, first compound 0.0316 µM
[24] = second compound 10 µM, first compound 0.1 µM
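Further: spheroids exposed to compounds for seven days.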
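Wherever viability, T/C is given: 100% = DMSO vehicle control viability.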

COc1cccc(OCCCN)c1-c1cc(Nc2cnc(C#N)cn2)n[nH]1 + COC1C(OC(N)=O)C(O)C(Oc2ccc3c(O)c(NC(=O)c4ccc(O)c(CC=C(C)C)c4)c(=O)oc3c2C)OC1(C)C
20.4 nM: IC50 (second compound 0.0316 µM)
17.5 nM: IC50 (second compound 1 µM)
29.8 nM: IC50 (second compound 0.316 µM)
26.4 nM: IC50 (second compound 3.16 µM)
inactive: viability, T/C [1] 90.8% | viability, T/C [2] 55.7% | viability, T/C [3] 51.2% | viability, T/C [4] 33.5% | viability, T/C (second compound 0.0316 µM, first compound 0.316 µM) 34.4% | viability, T/C (second compound 0.0316 µM, first compound 1 µM) 36.2% | viability, T/C [5] 90% | viability, T/C [6] 63.5% | viability, T/C [7] 41.1% | viability, T/C [8] 31.6% | viability, T/C (second compound 0.1 µM, first compound 0.316 µM) 31.5% | viability, T/C (second compound 0.1 µM, first compound 1 µM) 30.9% | viability, T/C [9] 73.2% | viability, T/C [10] 66.6% | viability, T/C [11] 47.8% | viability, T/C [12] 38.8% | viability, T/C (second compound 0.316 µM, first compound 0.316 µM) 33.8% | viability, T/C (second compound 0.316 µM, first compound 1 µM) 31.7% | viability, T/C [13] 87% | viability, T/C [14] 57.5% | viability, T/C [15] 40.9% | viability, T/C [16] 36.7% | viability, T/C (second compound 1 µM, first compound 0.316 µM) 35% | viability, T/C (second compound 1 µM, first compound 1 µM) 30% | viability, T/C [17] 78.3% | viability, T/C [18] 61.5% | viability, T/C [19] 48% | viability, T/C [20] 38.2% | viability, T/C (second compound 3.16 µM, first compound 0.316 µM) 31.4% | viability, T/C (second compound 3.16 µM, first compound 1 µM) 28.6% | viability, T/C [21] 81.7% | viability, T/C [22] 58.5% | viability, T/C [23] 45.6% | viability, T/C [24] 33.8% | viability, T/C (second compound 10 µM, first compound 0.316 µM) 34.4% | viability, T/C (second compound 10 µM, first compound 1 µM) 30.7%
19.8 nM: IC50 (second compound 0.1 µM)
20 nM: IC50 (second compound 10 µM)

Cn1ncnc1[C@H]1c2n[nH]c(=O)c3cc(F)cc(c23)N[C@@H]1c1ccc(F)cc1 + COC1C(OC(N)=O)C(O)C(Oc2ccc3c(O)c(NC(=O)c4ccc(O)c(CC=C(C)C)c4)c(=O)oc3c2C)OC1(C)C
> 100 nM: IC50 (second compound 0.0316 µM) | IC50 (second compound 0.1 µM) | IC50 (second compound 0.316 µM) | IC50 (second compound 1 µM) | IC50 (second compound 3.16 µM) | IC50 (second compound 10 µM)
inactive: viability, T/C (second compound 0.0316 µM, first compound 0.000316 µM) 97% | viability, T/C (second compound 0.0316 µM, first compound 0.001 µM) 95% | viability, T/C [1] 93.1% | viability, T/C [2] 80.6% | viability, T/C [3] 73.3% | viability, T/C [4] 76.8% | viability, T/C (second compound 0.1 µM, first compound 0.000316 µM) 108% | viability, T/C (second compound 0.1 µM, first compound 0.001 µM) 92.7% | viability, T/C [5] 74.2% | viability, T/C [6] 73.7% | viability, T/C [7] 73.4% | viability, T/C [8] 72.5% | viability, T/C (second compound 0.316 µM, first compound 0.000316 µM) 90.8% | viability, T/C (second compound 0.316 µM, first compound 0.001 µM) 87.8% | viability, T/C [9] 90.9% | viability, T/C [10] 91.9% | viability, T/C [11] 85% | viability, T/C [12] 66.6% | viability, T/C (second compound 1 µM, first compound 0.000316 µM) 88.9% | viability, T/C (second compound 1 µM, first compound 0.001 µM) 77.4% | viability, T/C [13] 89.2% | viability, T/C [14] 117% | viability, T/C [15] 85% | viability, T/C [16] 79.6% | viability, T/C (second compound 3.16 µM, first compound 0.000316 µM) 97.9% | viability, T/C (second compound 3.16 µM, first compound 0.001 µM) 100% | viability, T/C [17] 103% | viability, T/C [18] 83.9% | viability, T/C [19] 71.5% | viability, T/C [20] 74.1% | viability, T/C (second compound 10 µM, first compound 0.000316 µM) 72.9% | viability, T/C (second compound 10 µM, first compound 0.001 µM) 115% | viability, T/C [21] 89.8% | viability, T/C [22] 119% | viability, T/C [23] 80.4% | viability, T/C [24] 59.6%
